Source: patent US20230399312A1, “SUBSTITUTED PYRIMIDINES AND METHODS OF USE” (THERAVANCE BIOPHARMA R&D IP, LLC, priority 2020, published 2023)

Assays:
[1] = test system: TGF-β-stimulated SMAD3 phosphorylation in BEAS-2B cells; experiment: Cellular ALK5 potency assay, inhibition of TGF-β stimulated pSMAD3 formation in BEAS-2B cells; assay type: cell-based; conditions: Homo sapiens, pSMAD3, TGF-β 10 ng/mL, read-out: BEAS2B pIC50 (converted)
In short: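 BEAS-2B cells, HBSS/25 mM HEPES/1% BSA buffer; cpd 1 h, 37 °C; TGF-β 10 ng/mL final, 30 min; lysis, AlphaLISA pSMAD3 read next day. pIC50 vs stimulated no-compound baseline.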

[2] = target: T1, recombinant human ALK5 (TGF-βR1) protein (Homo sapiens, UniProt P36897); experiment: Biochemical ALK5 (TGF-βR1) assay to measure pKi (LANCE Ultra ULight kinase assay); conditions: apparent pKi, converted from pIC50 by Cheng-Prusoff
T1 construct: purchased Life Technologies PR9075A
T1 sequence (P36897 34-503): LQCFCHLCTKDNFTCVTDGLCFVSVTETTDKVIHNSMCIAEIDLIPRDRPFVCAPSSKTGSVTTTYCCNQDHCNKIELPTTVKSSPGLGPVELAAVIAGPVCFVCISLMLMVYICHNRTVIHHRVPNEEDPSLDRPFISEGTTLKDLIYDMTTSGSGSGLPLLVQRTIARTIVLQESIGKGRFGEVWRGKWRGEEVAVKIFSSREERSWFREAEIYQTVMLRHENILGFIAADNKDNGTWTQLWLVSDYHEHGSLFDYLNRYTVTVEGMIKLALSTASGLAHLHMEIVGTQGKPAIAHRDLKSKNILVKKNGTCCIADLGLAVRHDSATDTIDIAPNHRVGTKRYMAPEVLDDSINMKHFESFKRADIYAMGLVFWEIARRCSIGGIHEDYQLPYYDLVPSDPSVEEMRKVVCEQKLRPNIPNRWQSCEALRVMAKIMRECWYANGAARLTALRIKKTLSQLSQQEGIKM
In short: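 Enzyme preincubated with compound for 60 min at room temperature, then reacted with ATP (125 μM as 5× stock) for 60 min at 37 °C. Stopped with EDTA plus Eu-anti-phospho-Topoisomerase 2-alpha (Thr1342) antibody and read by TR-FRET at 665 nm. pIC50 from a 4-parameter fit, converted to pKi by Cheng-Prusoff.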

| Compound | Ki [2] [nM] | IC50 [1] [nM] |
| --- | --- | --- |
| Cc1cccc(-c2nccc(Nc3ccnc(Nc4ccc(N5CCN(C6CCOC6=O)CC5)cc4)n3)n2)n1 (stereo not shown) [Compound 365, 3-[4-[4-[[4-[[2-(6-methyl-2-pyridyl)pyrimidin-4-yl]amino]pyrimidin-2-yl]amino]phenyl]piperazin-1-yl]tetrahydrofuran-2-one] | 0.0398 to 0.316 | ≤ 20 |
| Cc1cccc(-c2nccc(Nc3ccnc(Nc4ccc(CN5[C@H](C)CNC[C@@H]5C)cc4)n3)n2)n1 [Compound 470, N2-[4-[[(2R,6S)-2,6-dimethylpiperazin-1-yl]methyl]phenyl]-N4-[2-(6-methyl-2-pyridyl)pyrimidin-4-yl]pyrimidine-2,4-diamine] | 0.0398 to 0.316 | 25.1 to 158 |
| Cc1cccc(-c2nccc(Nc3ccnc(Nc4ccc(N5CCC(C(=O)OC6CCNC6)CC5)cc4)n3)n2)n1 (stereo not shown) [Compound 101, pyrrolidin-3-yl 1-[4-[[4-[[2-(6-methyl-2-pyridyl)pyrimidin-4-yl]amino]pyrimidin-2-yl]amino]phenyl]piperidine-4-carboxylate] | 0.0398 to 0.316 | 25.1 to 158 |
| Cc1cccc(-c2nccc(Nc3ccnc(Nc4ccc(CN5CCNC[C@@H]5CO)cc4)n3)n2)n1 [Compound 132, [(2R)-1-[[4-[[4-[[2-(6-methyl-2-pyridyl)pyrimidin-4-yl]amino]pyrimidin-2-yl]amino]phenyl]methyl]piperazin-2-yl]methanol] | 0.0398 to 0.316 | 25.1 to 158 |
| Cc1cccc(-c2nccc(Nc3ccnc(Nc4ccc(N5CCC(N(C)Cc6ccccn6)CC5)cc4)n3)n2)n1 [Compound 243, N2-[4-[4-[methyl(2-pyridylmethyl)amino]-1-piperidyl]phenyl]-N4-[2-(6-methyl-2-pyridyl)pyrimidin-4-yl]pyrimidine-2,4-diamine] | 0.0398 to 0.316 | 25.1 to 158 |
| Cc1cccc(-c2nc(C)cc(Nc3ccnc(Nc4ccc(N5CCNCC5)cc4)n3)n2)n1 [Compound 482, N4-[6-methyl-2-(6-methyl-2-pyridyl)pyrimidin-4-yl]-N2-(4-piperazin-1-ylphenyl)pyrimidine-2,4-diamine] | 0.0398 to 0.316 | 25.1 to 158 |
| Cc1cccc(-c2nccc(Nc3ccnc(Nc4nc(C(=O)OC[C@@H]5CCCNC5)cs4)n3)n2)n1 [Compound 580, [(3R)-3-piperidyl]methyl 2-[[4-[[2-(6-methyl-2-pyridyl)pyrimidin-4-yl]amino]pyrimidin-2-yl]amino]thiazole-4-carboxylate] | 0.398 to 3.16 | 200 to 1260 |
| Cc1cccc(-c2nccc(Nc3ccnc(Nc4ccc(C(=O)OCCN5C[C@@H](C)N[C@@H](C)C5)nc4)n3)n2)n1 [Compound 589, 2-[(3R,5S)-3,5-dimethylpiperazin-1-yl]ethyl 5-[[4-[[2-(6-methyl-2-pyridyl)pyrimidin-4-yl]amino]pyrimidin-2-yl]amino]pyridine-2-carboxylate] | 0.398 to 3.16 | 25.1 to 158 |
| Cc1cccc(-c2nccc(Nc3ccnc(Nc4ccc(N5CCNCC5)c(CC(=O)OC5CNC5)c4)n3)n2)n1 [Compound 530, azetidin-3-yl 2-[5-[[4-[[2-(6-methyl-2-pyridyl)pyrimidin-4-yl]amino]pyrimidin-2-yl]amino]-2-piperazin-1-yl-phenyl]acetate] | 0.0398 to 0.316 | 200 to 1260 |
| Cc1cccc(-c2nccc(Nc3ccnc(Nc4cc(C(=O)O[C@@H]5CCN(C)C5)cs4)n3)n2)n1 [Compound 522, [(3R)-1-methylpyrrolidin-3-yl] 5-[[4-[[2-(6-methyl-2-pyridyl)pyrimidin-4-yl]amino]pyrimidin-2-yl]amino]thiophene-3-carboxylate] | 0.0398 to 0.316 | 25.1 to 158 |
| Cc1cccc(-c2nc(Nc3ccnc(Nc4ccc(NC(=O)[C@H]5C[C@@H](N)C5)cc4)n3)c3cccn3n2)n1 [Compound 1030, 3-amino-N-[4-[[4-[[2-(6-methyl-2-pyridyl)pyrrolo[2,1-f][1,2,4]triazin-4-yl]amino]pyrimidin-2-yl]amino]phenyl] cyclobutanecarboxamide] | 0.0398 to 0.316 | 25.1 to 158 |
| Cc1cccc(-c2nccc(Nc3ccnc(Nc4ccc(CN5C6CCC5CNC6)cc4)n3)n2)n1 [Compound 197, N2-[4-(3,8-diazabicyclo[3.2.1]octan-8-ylmethyl)phenyl]-N4-[2-(6-methyl-2-pyridyl)pyrimidin-4-yl]pyrimidine-2,4-diamine] | 0.0398 to 0.316 | 25.1 to 158 |
| Cc1cccc(-c2nccc(Nc3ccnc(Nc4ccc(C(=O)OC5CNC5)s4)n3)n2)n1 [Compound 258, azetidin-3-yl 5-[[4-[[2-(6-methyl-2-pyridyl)pyrimidin-4-yl]amino]pyrimidin-2-yl]amino]thiophene-2-carboxylate] | 0.0398 to 0.316 | 25.1 to 158 |
| Cc1cccc(-c2nccc(Nc3ccnc(Nc4nc(C(=O)OC5CCNCC5)cs4)n3)n2)n1 [Compound 148, piperidin-4-yl 2-((4-((2-(6-methylpyridin-2-yl)pyrimidin-4-yl)amino)pyrimidin-2-yl)amino)thiazole-4-carboxylate] | 0.398 to 3.16 | 25.1 to 158 |
| Cc1cccc(-c2nccc(Nc3ccnc(Nc4ccc(N5CCN(CCN)CC5)cc4)n3)n2)n1 [Compound 478, N2-[4-[4-(2-aminoethyl)piperazin-1-yl]phenyl]-N4-[2-(6-methyl-2-pyridyl)pyrimidin-4-yl]pyrimidine-2,4-diamine] | 0.0398 to 0.316 | 200 to 1260 |
| Cc1cccc(-c2nccc(Nc3ccnc(Nc4ccc(N5CCC(N6CCCC6)CC5)cc4)n3)n2)n1 [Compound 123, N4-[2-(6-methyl-2-pyridyl)pyrimidin-4-yl]-N2-[4-(4-pyrrolidin-1-yl-1-piperidyl)phenyl]pyrimidine-2,4-diamine] | ≤ 0.0316 | 25.1 to 158 |
| Cc1cccc(-c2nccc(Nc3ccnc(Nc4ccc(N5CCN(CC6CCNC6)CC5)cc4)n3)n2)n1 (stereo not shown) [Compound 102, N4-[2-(6-methyl-2-pyridyl)pyrimidin-4-yl]-N2-[4-[4-(pyrrolidin-3-ylmethyl)piperazin-1-yl]phenyl]pyrimidine-2,4-diamine] | 0.0398 to 0.316 | 25.1 to 158 |

Now from value to compound, other results behind:

| Ki [2] [nM] | Compound | IC50 [1] [nM] |
| --- | --- | --- |
| 0.0398 to 0.316 | Cc1cccc(-c2nccc(Nc3ccnc(Nc4ccc(C5CCCNC5)cc4)n3)n2)n1 (stereo not shown) [Compound 374, N4-[2-(6-methyl-2-pyridyl)pyrimidin-4-yl]-N2-[4-(3-piperidyl)phenyl]pyrimidine-2,4-diamine] | 25.1 to 158 |
| 0.398 to 3.16 | Cc1cccc(-c2nccc(Nc3ccnc(Nc4ccc(-c5c(C)noc5C)cc4)n3)n2)n1 [Compound 469, N2-[4-(3,5-dimethylisoxazol-4-yl)phenyl]-N4-[2-(6-methyl-2-pyridyl)pyrimidin-4-yl]pyrimidine-2,4-diamine] | 25.1 to 158 |
| 0.0398 to 0.316 | Cc1cccc(-c2nccc(Nc3ccnc(Nc4ccc(NC(=O)C5CCNC5)cc4)n3)n2)n1 (stereo not shown) [Compound 78, N-[4-[[4-[[2-(6-methyl-2-pyridyl)pyrimidin-4-yl]amino]pyrimidin-2-yl]amino]phenyl]pyrrolidine-3-carboxamide] | ≤ 20 |
| 0.0398 to 0.316 | Cc1cccc(-c2nccc(Nc3ccnc(Nc4ccc(NC(=O)C5CCCNC5)cc4)n3)n2)n1 (stereo not shown) [Compound 10, N-[4-[[4-[[2-(6-methyl-2-pyridyl)pyrimidin-4-yl]amino]pyrimidin-2-yl]amino]phenyl]piperidine-3-carboxamide] | ≤ 20 |
| 0.398 to 3.16 | Cc1cccc(-c2nccc(Nc3ccnc(Nc4ccc(OCCO)cc4)n3)n2)n1 [Compound 54, 2-[4-[[4-[[2-(6-methyl-2-pyridyl)pyrimidin-4-yl]amino]pyrimidin-2-yl]amino]phenoxy]ethanol] | 25.1 to 158 |
| 3.98 to 31.6 | Cc1cccc(-c2nccc(Nc3ccnc(Nc4ccc(Br)cc4)n3)n2)n1 [Compound 234, N2-(4-bromophenyl)-N4-[2-(6-methyl-2-pyridyl)pyrimidin-4-yl]pyrimidine-2,4-diamine] | 25.1 to 158 |
| 0.0398 to 0.316 | Cc1cccc(-c2nccc(Nc3ccnc(Nc4ccc(C5=CCC(N)CC5)cc4)n3)n2)n1 (stereo not shown) [Compound 151, N2-[4-(4-aminocyclohexen-1-yl)phenyl]-N4-[2-(6-methyl-2-pyridyl)pyrimidin-4-yl]pyrimidine-2,4-diamine] | 25.1 to 158 |
| 0.0398 to 0.316 | Cc1cccc(-c2nccc(Nc3ccnc(Nc4ccc(C(=O)O[C@@H]5CCN(C)C5)cc4)n3)n2)n1 [Compound 464, [(3R)-1-methylpyrrolidin-3-yl] 4-[[4-[[2-(6-methyl-2-pyridyl)pyrimidin-4-yl]amino]pyrimidin-2-yl]amino]benzoate] | 25.1 to 158 |
| 0.0398 to 0.316 | Cc1cccc(-c2nccc(Nc3ccnc(Nc4ccc(C(=O)OC5CCNCC5)cc4)n3)n2)n1 [Compound 147, 4-piperidyl 4-[[4-[[2-(6-methyl-2-pyridyl)pyrimidin-4-yl]amino]pyrimidin-2-yl]amino]benzoate] | 25.1 to 158 |
